Reference: patent publication US12492173B2, “Herbicidal substituted N-tetrazolyl aryl carboxamides” (Bayer Aktiengesellschaft, priority 2019, dated 2025)

What was measured:
Type in all cases: in vivo
[1] = system: Echinochloa crus-galli; assay: Pre-emergence herbicidal action, ECHCG; set-up: key to Herbicidal action against ECHCG: % activity: 100 = plants have died, 0 = like control plants; details: for Herbicidal action against ECHCG: comparative experiment, 20 g of a.i./ha; for herbicidal activity ECHCG: scored visually after 3 weeks vs untreated controls (100% = plants have died)
Summary of the method: (§1)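 Pre-emergence, sandy loam soil; WP/EC formulation applied to covering soil surface, 600–800 l/ha water + 0.2% wetter; greenhouse, 3 wk; visual % damage vs untreated (0–100%).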

[2] = system: Hordeum murinum; assay: Pre-emergence herbicidal action, HORMU; details: dosage 320 g/ha; for herbicidal activity HORMU: scored visually after 3 weeks vs untreated controls (100% = plants have died)
Summary of the method: as §1

[3] = system: Lolium rigidum; assay: Pre-emergence herbicidal action, LOLRI; details: dosage 320 g/ha, scored visually after 3 weeks vs untreated controls (100% = plants have died)
Description: 1. Pre-Emergence Herbicidal Action Against Harmful Plants Seeds of monocotyledonous and dicotyledonous weed plants and crop plants are laid out in sandy loam soil in wood-fiber pots and covered with soil. The compounds of the invention, formulated in the form of wettable powders (WP) or as emulsion concentrates (EC), are then applied to the surface of the covering soil in the form of an aqueous suspension or emulsion at a water application rate equating to 600 to 800 l/ha, with addition of 0.2% wetting agent. After the treatment, the pots are placed in a greenhouse and kept under good growth conditions for the trial plants. The damage to the test plants is scored visually after a test period of 3 weeks by comparison with untreated controls (herbicidal activity in percent (%): 100% activity=the plants have died, 0% activity=like control plants). […] The tables below illustrate, in an exemplary manner, the […] herbicidal action of the compounds according to the invention, the herbicidal activity being stated in percent. [table] In the experiments that follow, herbicidal action of numerous inventive compounds and the known compounds that are structurally closest from D1 (WO 2012/028579 A1) and D2 (WO 2018/202535 A1) were compared under the above-specified conditions by the pre-emergence and post-emergence method. The example numbers given in the tables relate to the compounds disclosed in the respective documents. In addition to the compounds disclosed in D1 and D2, the following compounds V-1 to V-14 that are encompassed by D1 or D2 but are not compounds specified therein were used in the comparative experiments: • V-1: 2-(methylsulfanyl)-3-(methylsulfinyl)-N-(1-methyl-1H-tetrazol-5-yl)-4-(trifluoromethyl)benzamide • V-2: 2-(methylsulfanyl)-3-(methylsulfonyl)-N-(1-methyl-1H-tetrazol-5-yl)-4-(trifluoromethyl)benzamide • V-3: 2,3-bis(ethylsulfanyl)-N-(1-methyl-1H-tetrazol-5-yl)-4-(trifluoromethyl)benzamide • V-4: 2-chloro-3-(ethylsulfanyl)-N-(1-methyl-1H-tetrazol-5-yl)-4-(trifluoromethyl)benzamide • V-5: 2-chloro-4-iodo-3-(methylsulfanyl)-N-(1-methyl-1H-tetrazol-5-yl)benzamide • V-6: 2-chloro-4-iodo-3-(methylsulfinyl)-N-(1-methyl-1H-tetrazol-5-yl)benzamide • V-7: 2-chloro-4-iodo-3-(methylsulfonyl)-N-(1-methyl-1H-tetrazol-5-yl)benzamide • V-8: 2-bromo-3-(methylsulfanyl)-N-(1-methyl-1H-tetrazol-5-yl)-4-(trifluoromethyl)benzamide • V-9: 2-bromo-3-(methylsulfinyl)-N-(1-methyl-1H-tetrazol-5-yl)-4-(trifluoromethyl)benzamide • V-10: 2-bromo-3-(methylsulfonyl)-N-(1-methyl-1H-tetrazol-5-yl)-4-(trifluoromethyl)benzamide • V-11: 2-bromo-3-(ethylsulfanyl)-N-(1-methyl-1H-tetrazol-5-yl)-4-(trifluoromethyl)benzamide • V-12: 2-bromo-3-(ethylsulfinyl)-N-(1-methyl-1H-tetrazol-5-yl)-4-(trifluoromethyl)benzamide • V-13: 2-bromo-3-(ethylsulfonyl)-N-(1-methyl-1-1H-tetrazol-5-yl)-4-(trifluoromethyl)benzamide • V-14: 2-cyclopropyl-3-(ethylsulfanyl)-N-(1-methyl-1H-tetrazol-5-yl)-4-(trifluoromethyl)benzamide Herbicidal Pre-Emergence Action: […]

[4] = system: Avena fatua; assay: Post-emergence herbicidal action, AVEFA; set-up: key: % herbicidal action vs untreated; 100 = plants died, 0 = like control
Summary of the method: (§2)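 Visual % damage versus untreated plants, scored about 3 weeks post-spray (100% = dead, 0% = like control). Greenhouse plants in sandy loam were treated at one-leaf stage with WP/EC formulations in water at 600 to 800 l/ha plus 0.2% wetting agent.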

[5] = system: Cyperus esculentus; assay: Post-emergence herbicidal action, CYPES; set-up: key: % herbicidal action vs untreated; 100 = plants died, 0 = like control; details: post-emergence
Summary of the method: as §2

[6] = system: Echinochloa crus-galli; assay: Post-emergence herbicidal action, ECHCG; set-up: key: % herbicidal action vs untreated; 100 = plants died, 0 = like control
Summary of the method: as §2

SMILES	Herbicidal action against ECHCG [1]	herbicidal activity ECHCG ([1]; dosage 320 g/ha) [%]	herbicidal activity HORMU [2] [%]	herbicidal activity LOLRI [3] [%]	herbicidal action AVEFA ([4]; post-emergence, dosage 80 g/ha) [%]	Herbicidal action against CYPES ([5]; comparative experiment, 5 g of a.i./ha)	herbicidal action ECHCG ([6]; post-emergence, dosage 80 g/ha) [%]	herbicidal action ECHCG ([6]; Dosage 80 g/ha)	herbicidal action AVEFA ([4]; Dosage 80 g/ha)	herbicidal action CYPES ([5]; dosage 80 g/ha) [%]	herbicidal action ECHCG ([1]; dosage 320 g/ha) [%]	herbicidal action HORMU [2] [%]
CSCc1c(I)ccc(C(=O)Nc2nnnn2C)c1Cl [Example 1-362]	80	100	80	80	100	30	100	–	–	–	–	–
Cn1nnnc1NC(=O)c1ccc(I)c(CS(C)(=O)=O)c1Cl [Example 1-364]	90	100	90	80	–	–	–	100	–	–	–	–
Cn1nnnc1NC(=O)c1ccc(C(F)(F)F)c(CS(C)(=O)=O)c1C(F)(F)C(F)(F)F [Example 1-552]	–	100	80	–	–	–	–	90	90	–	–	–
CCn1nnnc1NC(=O)c1ccc(C(F)(F)F)c(C[S+](C)[O-])c1SC (stereo not shown) [Example 2-162]	–	100	90	–	–	–	–	90	100	–	–	–
CCn1nnnc1NC(=O)c1ccc(C(F)(F)F)c(C[S+]([O-])CC)c1Cl (stereo not shown) [Example 2-300]	–	100	100	100	100	–	100	–	–	–	–	–
CCn1nnnc1NC(=O)c1ccc(C(F)(F)F)c(CSCCOC)c1Cl [Example 2-305]	–	100	100	100	80	–	100	–	–	100	–	–
CCn1nnnc1NC(=O)c1ccc(C(F)(F)F)c(CSCC(F)(F)F)c1Cl [Example 2-311]	–	100	80	90	–	–	–	100	90	–	–	–
CCn1nnnc1NC(=O)c1ccc(C(F)(F)F)c(C[S+]([O-])CC2CC2)c1Cl (stereo not shown) [Example 2-315]	–	100	100	90	–	–	–	100	90	–	–	–
CCn1nnnc1NC(=O)c1ccc(C(F)F)c(C[S+]([O-])CC)c1Cl (stereo not shown) [Example 2-324]	–	100	100	90	100	–	100	–	–	–	–	–
CCn1nnnc1NC(=O)c1ccc(I)c(C[S+](C)[O-])c1Cl (stereo not shown) [Example 2-363]	–	100	100	100	–	–	–	100	90	–	–	–
CCCn1nnnc1NC(=O)c1ccc(C(F)(F)F)c(C[S+](C)[O-])c1SC (stereo not shown) [Example 3-162]	–	100	100	90	90	–	100	–	–	–	–	–
CCCn1nnnc1NC(=O)c1ccc(C(F)(F)F)c(CS(C)(=O)=O)c1SC [Example 3-163]	–	100	90	–	–	–	–	90	90	–	–	–
CCCn1nnnc1NC(=O)c1ccc(I)c(C[S+](C)[O-])c1Cl (stereo not shown) [Example 3-363]	–	–	–	–	–	–	–	100	80	–	100	100
